In PubChem BioAssay (NCI):
Values joined by “and” are separate entries in the source; they are usually repeats but may differ in a detail not shown here. Equal entries are not always repeated.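 Growth conditions: 96-well plates. Treatment: test compound, 48 hours, 5 concentrations. Analysis: linear interpolation between bracketing concentrations; unreached endpoints set to highest concentration. Here, GI50 denotes the concentration required for 50% inhibition of growth. The concentration for full growth arrest is given as TGI.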

Experiments:
Assay in all cases: growth of human tumour cells (NCI), 48 h
PC-3 prostate = tested on: PC-3 prostate
SNB-19 CNS = tested on: SNB-19 CNS
LOX IMVI melanoma = tested on: LOX IMVI melanoma
OVCAR-4 ovarian = tested on: OVCAR-4 ovarian
HOP-62 NSCLC = tested on: HOP-62 NSCLC
SK-MEL-2 melanoma = tested on: SK-MEL-2 melanoma
HCC-2998 colon = tested on: HCC-2998 colon
NCI-H522 lung = tested on: NCI-H522 lung
KM12 colon = tested on: KM12 colon
EKVX NSCLC = tested on: EKVX NSCLC

Compound	GI50 (PC-3 prostate)	TGI (PC-3 prostate)	GI50 (SNB-19 CNS)	TGI (SNB-19 CNS)	GI50 (LOX IMVI melanoma)	TGI (LOX IMVI melanoma)	GI50 (OVCAR-4 ovarian)	TGI (OVCAR-4 ovarian)	GI50 (HOP-62 NSCLC)	TGI (HOP-62 NSCLC)	GI50 (SK-MEL-2 melanoma)	TGI (SK-MEL-2 melanoma)	GI50 (HCC-2998 colon)	TGI (HCC-2998 colon)	GI50 (NCI-H522 lung)	TGI (NCI-H522 lung)	GI50 (KM12 colon)	TGI (KM12 colon)	GI50 (EKVX NSCLC)	TGI (EKVX NSCLC)
COc1ccc(OC)c(C2SCC(=O)N2NC(=O)C(O)c2ccccc2)c1 (centres undefined)	> 100 µM	> 100 µM	> 100 µM	> 100 µM	> 100 µM	> 100 µM	> 100 µM	> 100 µM	> 100 µM	> 100 µM	> 100 µM	> 100 µM	> 100 µM	> 100 µM	> 100 µM	> 100 µM	> 100 µM	> 100 µM	> 100 µM	> 100 µM
CCCCCn1sc(=O)n(Cc2ccc(CNC(=O)OCc3ccc4cccc(O)c4n3)cc2)c1=O	1.22 µM	2.76 µM	4.44 µM	16.7 µM	1.09 µM	2.33 µM	1.67 µM	3.21 µM	2.73 µM	14.9 µM	1.72 µM	3.47 µM	2.09 µM	4.52 µM	1.07 µM	2.74 µM	2.78 µM	8.91 µM	2.01 µM	5.41 µM
Cc1cccc(NC(=O)c2sc3nc4c(cc3c2N)CN(Cc2ccccc2)CC4)c1C	0.21 µM	> 50 µM	0.283 µM	> 50 µM	0.254 µM	> 50 µM	0.971 µM	39 µM	0.261 µM	> 50 µM	0.328 µM	25.8 µM	5.39 µM	> 50 µM	0.138 µM	> 50 µM	0.193 µM	> 50 µM	0.45 µM	> 50 µM
CC(=O)c1c(C(F)(F)F)n([O-])c2ccc(C)cc2[n+]1=O	1.34 µM	14.1 µM	6.03 µM	> 100 µM	3.29 µM	> 44.2 µM	4.88 µM	> 100 µM	3.64 µM	21.9 µM	15.5 µM	> 66.5 µM	1.89 µM	8.53 µM	3 µM	> 24.2 µM	5.04 µM	> 52.2 µM	1.19 µM	4.59 µM
C#CCOc1cccc(Nc2ncnc3c(NC(=O)CCl)cccc23)c1	22.8 µM	55.6 µM	33.9 µM	> 100 µM	1.7 µM	3.47 µM	37.1 µM	> 100 µM	25.8 µM	86.3 µM	21.1 µM	60.8 µM	17.7 µM	34 µM	13.6 µM	29.3 µM	17.4 µM	37.8 µM	20 µM	54.1 µM
COc1ccc(C(=O)N2c3ccccc3Sc3ccccc32)c(OC)c1	0.43 µM	> 100 µM	0.551 µM	> 100 µM	0.601 µM	> 100 µM	3.17 µM	> 100 µM	0.822 µM	> 100 µM	0.585 µM	> 100 µM	1.49 µM	8.09 µM	0.343 µM	> 100 µM	0.438 µM	> 100 µM	0.851 µM	> 100 µM
CCN1C(=O)N(CC)C2C1NN=c1s/c(=C\c3ccccc3Br)c(=O)n12 (centres undefined)	0.0383 µM	44.5 µM	0.052 µM	> 67.9 µM	0.0284 µM	16.6 µM	0.069 µM	63 µM	0.0485 µM	20.4 µM	0.308 µM	25.5 µM	0.0392 µM	4.12 µM	0.019 µM	1.12 µM	0.0236 µM	1.5 µM	0.317 µM	> 70.7 µM
COc1ccc2cc(-c3c(-c4ccncc4)nc(-c4ccc(S(C)=O)cc4)n3C)ccc2c1 (centres undefined)	> 21.3 µM	> 25 µM	> 20.8 µM	> 25 µM	> 23.4 µM	> 25 µM	20.6 µM	> 25 µM	> 21.1 µM	> 25 µM	> 25 µM	> 25 µM	25 µM	> 25 µM	> 18.5 µM	> 25 µM	> 24.1 µM	> 25 µM	15.6 µM	> 25 µM
Cc1cc(N(CCC#N)CCC#N)ccc1/C=C1N=C(/C=C\c2ccccc2)N(c2ccc(Cl)cc2)C\1=O		> 100 µM		> 100 µM		> 100 µM		> 100 µM		> 63.5 µM		> 100 µM		> 100 µM		> 100 µM		> 100 µM		> 100 µM
COC(=O)c1nc(-c2ccccc2)oc1S(=O)(=O)n1nc(C)cc1N	18.3 µM	33.5 µM	15.6 µM	34.3 µM	1.51 µM	3.34 µM	16.2 µM	36 µM	27.9 µM	84.2 µM	13.7 µM	30.5 µM	18.2 µM	32.2 µM	2.06 µM	4.06 µM	16.9 µM	32.4 µM	16.7 µM	43.9 µM
CCCCn1c(=O)c2c(nc3n2CCCN3CCc2ccc(OCC(=O)NCCN(CC)CC)cc2)n(CCCC)c1=O	1.19 µM	5.37 µM	3.24 µM	11.4 µM	0.929 µM	1.99 µM	2.61 µM	9.76 µM	5.75 µM	14.7 µM	6.7 µM	15.3 µM	2.93 µM	9.73 µM	7.5 µM	16.7 µM	6.49 µM	13.5 µM	5.2 µM	11.7 µM
N#CN1CC[C@H](C(=O)Nc2ncc(-c3ccncc3)s2)C1	0.0582 µM	12.7 µM	0.415 µM	> 69.6 µM	< 0.019 µM	> 100 µM	< 0.027 µM	7.07 µM	0.0689 µM	3.92 µM	< 0.01 µM	0.0976 µM	0.0844 µM	11 µM	< 0.0149 µM	0.0499 µM	< 0.0213 µM	3.44 µM	0.0642 µM	4.4 µM
CCn1c2ccccc2c2cc(/C=C(/C#N)C(N)=O)ccc21	21.6 µM	> 100 µM	10.2 µM	> 87.8 µM	14.4 µM	> 100 µM	6.54 µM	> 100 µM	4.81 µM	41.8 µM	11.4 µM	> 60.4 µM	4.22 µM	25.3 µM	11.7 µM	> 100 µM	13.5 µM	> 100 µM	3.57 µM	> 48.7 µM
CC(=O)Oc1ccccc1C(=O)/C=C/c1cccc([N+](=O)[O-])c1	3.69 µM	15.3 µM	4.43 µM	15.3 µM	1.56 µM	3.33 µM	5.95 µM	23.1 µM	2.5 µM	7.8 µM	15.1 µM	29.4 µM	2.3 µM	4.97 µM	15.3 µM	36.3 µM	2.4 µM	6.23 µM	11.3 µM	26.6 µM
CCN(Cc1ccc(Cl)s1)c1ccc(CO)c(Cl)c1	12.7 µM	49.4 µM	20.7 µM	> 93.5 µM	5.24 µM	18.8 µM	0.134 µM	0.776 µM	0.746 µM	18.4 µM	2.02 µM	13.7 µM	5.81 µM	28.6 µM	15.2 µM	37 µM	14.7 µM	31.6 µM		
CCC1(O)C(=O)OCc2c1cc1n(c2=O)Cc2cc3cc(N)ccc3nc2-1 (centres undefined)		> 100 µM		3.36 µM		0.059 µM		> 22 µM		0.357 µM		0.826 µM		1.37 µM		0.27 µM				> 28.9 µM
CN1CCN(Cc2ccc(NC(=O)c3[nH]ncc3Nc3ncnc4sc5c(c34)CCCC5)cc2)CC1	0.198 µM	1.33 µM	0.282 µM	1.48 µM	0.289 µM	1.71 µM	0.327 µM	1.84 µM	0.286 µM	1.45 µM	0.665 µM	3.22 µM	0.535 µM	2.07 µM	0.241 µM	1.08 µM	0.222 µM	1.29 µM		
Cc1c(C2=C(c3cn(C)c4ccccc34)C(=O)NC2=O)c2ccccc2n1C	4.38 µM	> 25 µM	> 25 µM	> 25 µM	5.3 µM	> 25 µM	9.22 µM	> 25 µM	2.72 µM	> 25 µM	1.93 µM	24.3 µM	24.9 µM	> 25 µM	0.969 µM	> 25 µM	3.87 µM	> 25 µM		
C/C1=C\[C@@H](O)C(=O)/C=C/C=C\c2csc(n2)[C@@H](C)NC(=O)C[C@@]2(CC1)S(=O)SC(=O)[C@]2(C)O (some centres undefined)		0.0387 µM	1.15 µM	0.511 µM and 2.87 µM		0.0605 µM		0.0793 µM	0.28 µM	0.374 µM and 1.83 µM		0.0148 µM		0.676 µM		0.0105 µM				0.612 µM
